Experimental findings from patent US20100137344A1, “INDUCTION OF ANALGESIA IN NEUROPATHIC PAIN” (University Court of the University of Edinburgh, priority 2006, published 2010) are described below.

Type in all cases: in vivo, rat
In test [1] the test system is rats with chronic constriction injury (CCI) to sciatic nerve. Put plainly: Topical application to paws of CCI rats, behavioural reflex testing (thermal PWL, mechanical PWT). The note with it: for analgesia, thermal hyperalgesia (Hargreaves' test): 30 μM topical, CCI model; for reversal of sensitised responses: topical, (−)-menthol 4 mM, isomenthol and (+)-menthol 8 mM and 16 mM. On the procedure:
(§1) Pain models were generated under halothane anaesthesia (Zeneca, Cheshire, UK). For the chronic constriction injury (CCI) model of neuropathic pain, four ligatures were tied loosely to constrict the sciatic nerve at mid-thigh level (as described previously^[39]). An inflammatory pain model was generated by injecting 100 μl of Complete Freund's Adjuvant (CFA, Sigma-Aldrich Ltd) into the ventral surface of the right hindpaw^[39]. A model of peripheral demyelination-induced pain was produced by focal application of lysolecithin to the sciatic nerve^[40]. Peak behavioural sensitisation was observed post-surgically between days 10-16 for CCI, 1-3 for CFA, and 7-14 for lysolecithin, when pharmacological and electrophysiological experiments and tissue removal were conducted.
(§2) Thermal sensitivity was assessed by measuring paw withdrawal latency (PWL, s) in response to a noxious thermal stimulus (Hargreaves' thermal stimulator, Linton Instrumentation, Diss, UK) directed to the hindpaw mid-plantar glabrous surface. Mechanical sensitivity was recorded as the paw withdrawal threshold (PWT, mN/mm^2) to calibrated von Frey filaments (Stoelting, Ill., US), as previously described^[39]. Sensitivity to noxious cold was assessed by placing animals in a waterbath with an aluminium floor containing 1 cm deep 4° C. water and counting the time the paw was held suspended over a 20 s period.
Icilin was applied at concentrations of 2.5-500 μM (in water with 0.2% DMF), by placing CCI or naïve rats unrestrained for 5 min in a 1 cm deep waterbath (sufficient to cover paws), which was thermostatically controlled to a temperature of 30° C., or by very lightly anaesthetising rats and immersing hindpaws in small tubes containing 5 ml icilin (500 μM-5 mM, with a vehicle of 45% dimethylformamide in 0.2% aqueous Tween 80) for 5 min, followed by sensory testing for 60-80 mins. The effects of (−)-menthol and its stereoisomers isomenthol (1S,2R,5R-menthol,) and (+)-menthol (1S,2R,5S(+)-menthol) (4-16 mM in 80% ethanol) were also assessed. Relevant vehicles were always assessed in similar experiments. As a contrast, the effect of cinnamaldehyde (1.5 mM in water) and the effect of cinnamaldehyde with additional icilin (80 μM in water with 0.2% DMF) were assessed in naïve animals. The effects of icilin (80 μM) were further assessed in CCI animals that had undergone antisense and mis-sense treatment for knockdown of TRPM8 or immediately following intrathecal injection of either LY 341495 or UBP 1112. […] The effects of brief paw immersion at different temperatures (10-22° C. for 5 min) on CCI rats were assessed by mechanical testing. The effects of intrathecal LY 341495 or UBP 1112 on the reversal of ipsilateral sensitisation in CCI following a 16° C. cool challenge for 5 min were measured. Reflex testing commenced 5 minutes following challenge, unless animals had been anaesthetised, in which case 15 minutes was allowed for recovery. Six replicate animals were tested in all pharmacological experiments.
Antisense and mis-sense oligonucleotides were 22-mers with phosphorothioate bonds at the last two positions at 5′ and 3′ ends (MWG Biotech, Ebersberg, Germany). Antisense extended from base −10 to base +12 relative to the start of the open reading frame for the rat TRPM8 gene: 5′ C*T*CGAAGGACATCTTGCCGT*G*G 3′, where * represents phosphorothioate linkages. Mis-sense was designed with 4 inversions of C/G or A/T as appropriate at residues 3, 11, 14 and 22, preserving overall G/C content. BLAST searches of both oligonucleotides indicated no significant complementarity to any known gene sequence. 14-day or 7-day osmotic minipumps (for CCI experiments or naïve electrophysiology experiments respectively—Alzet Minipump, models 2002, 2001; Charles River, UK) containing oligonucleotides (1 μg/μl in sterile saline) were connected to canulae inserted under the dura of the spinal cord to level L5/6 and produced a predicted infusion rate of 0.5 μl/h. […]

The test system is the same in test [2]. Description: Intrathecal application in CCI rats, behavioural reflex testing (PWL, PWT). The note with it: for effect on contralateral responses / reversal of mechanical reflex sensitisation ipsilateral to CCI / reversal of thermal reflex sensitisation ipsilateral to CCI: 2R,4R-APDC 15 nmol, ACPT-III and AP-4 150 nmol each; for reversal of mechanical reflex sensitisation ipsilateral to CCI / reversal of thermal reflex sensitisation ipsilateral to CCI: 15-30 min post-injection. On the procedure: as §1, §2
The following drugs were applied intrathecally in a 50 μl volume of saline-based vehicle at 37° C.: icilin (2.5-200 μM in saline with 0.2% dimethylformamide, DMF), LY 341495 (100 μM in saline), UBP 1112 (200 μM in saline), 2R,4R-APDC ((2R, 4R)-4-aminopyrrolidine-2,4-dicarboxylate), 300 μM in saline), ACPT-III ((1R,3R,4S)-1-aminocyclopentane-1,3,4-tricarboxylic acid), 3 mM in saline), AP-4, ((L-(1)-2-amino-4-phosphonobutyric acid), 3 mM in saline), naloxone (0.5 mM in saline), NMDA (75 μM in saline) and ACPC (1-aminocyclopropanecarboxylic acid, 15 μM in saline) (Tocris Cookson, Bristol, UK), (−)-menthol (1R,2S,5R-(−)-menthol, 4 mM in saline), cinnamaldehyde (1.5 mM in saline) and Ruthenium Red (5 μM in saline) (Sigma-Aldrich Co. Ltd, UK) and allicin (0.5 mM in saline with 0.5% DMF) and diallyl disulphide (DADS, 1 mM in saline with 0.5% DMF) (LKT Laboratories Inc., St Paul, Minn., USA). Drugs were injected into the L5/6 intrathecal space under brief halothane anaesthesia, using a 25-gauge needle microsyringe (BD Biosciences, Oxford, UK), as described previously^[39] in animals that were at peak levels of behavioural sensitisation. Behavioural reflex testing commenced 15 min following injection to allow recovery from anaesthesia^[40,41,42] and continued every 5 min thereafter until readings returned to baseline levels (n=6 in each case). We, and others^[40,41,42] find complete recovery from anaesthetic by 15 minutes. All appropriate controls were carried out to eliminate the possibility of effects due to vehicle or to injection procedure.
The TRPM8 channel activators, icilin and (−)-menthol were tested in CCI and naïve animals. The effects of icilin were additionally assessed in animals with CFA-induced inflammation or with lysolecithin-induced demyelination. Icilin was also co-administered with the μ-opioid receptor antagonist naloxone, the Group II metabotropic glutamate receptor (mGluR) antagonist, LY 341495, or the Group III mGluR antagonist, UBP 1112. The effects of these antagonists alone as well as effects of the Group II mGluR agonist, 2R,4R-APDC and the Group III mGluR agonists, ACPT-III and AP-4, were assessed in CCI animals. The TRPA1 channel activator, cinnamaldehyde, alone and with icilin, was tested in CCI animals and in naïve animals. Further TRPA1 channel activators, allicin and diallyl disulphide were assessed in naïve animals. Both icilin and cinnamaldehyde effects in CCI animals were also investigated in the additional presence of Ruthenium Red.

Test [3] concerns saphenous nerve afferents. Put plainly: Saphenous nerve afferent recordings after topical application to receptive field. The note with it: resiniferatoxin 1 mM; for firing frequency after drug / increase in firing frequency: topical icilin 200 μM. The text has this:
Antisense and mis-sense oligonucleotides were 22-mers with phosphorothioate bonds at the last two positions at 5′ and 3′ ends (MWG Biotech, Ebersberg, Germany). Antisense extended from base −10 to base +12 relative to the start of the open reading frame for the rat TRPM8 gene: 5′ C*T*CGAAGGACATCTTGCCGT*G*G 3′, where * represents phosphorothioate linkages. Mis-sense was designed with 4 inversions of C/G or A/T as appropriate at residues 3, 11, 14 and 22, preserving overall G/C content. BLAST searches of both oligonucleotides indicated no significant complementarity to any known gene sequence. 14-day or 7-day osmotic minipumps (for CCI experiments or naïve electrophysiology experiments respectively—Alzet Minipump, models 2002, 2001; Charles River, UK) containing oligonucleotides (1 μg/μl in sterile saline) were connected to canulae inserted under the dura of the spinal cord to level L5/6 and produced a predicted infusion rate of 0.5 μl/h. CCI surgery was performed at the same time as minipump implantation. Sensory tests were carried out to assess the time-course of behavioural sensitisation in animals which had also undergone a CCI injury. Icilin was applied topically rather than intrathecally so as to prevent any interference with the infusion canula. Peripheral nerve recordings and tissue harvesting were carried out after an interval of 4-5 days to allow time for protein knockdown.
Peripheral: Recordings of saphenous (sensory) nerve were made in naïve animals (n=7) to assess the effects of topical icilin on primary afferents. In addition, recordings were carried out on animals which had undergone TRPM8 antisense or mis-sense treatment beginning 4-5 days previously. Rats were anaesthetised (with 0.6 ml 25% urethane/100 g, i.p.) and the saphenous nerve was exposed and dissected from its associated vein and artery. Further dissection under liquid paraffin enabled identification of afferent preparations comprising a small number of fibres. The conduction velocity of single identified afferent fibres was determined using bipolar electrodes and the peripheral stimulus technique^[43]. Following isolation of preparations, icilin (200 μM in water with 0.2% DMF), (−)-menthol (4 mM in 25% ethanol) resiniferatoxin (1 mM in ethanol) or vehicle alone were applied to the hindlimb receptive fields and neuronal responses recorded using the Chart programme (version 3.6). Central: Recordings of spinal dorsal horn neurons were made in CCI animals, as described previously^[39]. Following halothane induction, the jugular vein and trachea were canulated and intravenous anaesthetic delivered: α-chloralose ([…], Fisher) and urethane ([…], Sigma), with small supplementary doses of α-chloralose as required throughout the experiment. Core body temperature was maintained at 37-38° C. by means of a thermostatically controlled heated blanket. The animal was placed in a stereotaxic frame, and the thoracolumbar spinal column was supported using three pairs of swan-necked clamps. A laminectomy was performed at L2-L5, and agar (2% in saline at 37° C.) was delivered over exposed cord to increase mechanical stability. Above the recording region the agar and spinal cord dura were removed and liquid paraffin poured into the pool. Extracellular recordings were made from single multireceptive neurons in laminae I-IV through the centre barrel of a seven-barrelled glass microelectrode filled with 4M NaCl (tip-diameter […], DC resistance 5-8 MΩ). The receptive fields of hair-follicle innervated neurons on the distal hindlimb were identified by an innocuous brush stimulus^[39]. Icilin (200 μM in water with 0.2% DMF) was applied peripherally to the receptive field of individual recorded neurons, and the effect on neuronal response to a rotating brush was recorded and analysed using Spike2 programme (Version 3.2, CED). […]

[4] abbreviates: mis-sense-treated animals, (−)-menthol 4 mM.

`COc1ccccc1N1CC=C(c2cccc([N+](=O)[O-])c2)NC1=O` [methoxy-icilin, 1-(2′-methoxyphenyl)-4-(3″-nitrophenyl)-1,2,3,6-tetrahydropyrimidin-2-one]: the “analgesia, thermal hyperalgesia (Hargreaves' test)” value in test [1] is “causes analgesia”.

`C=CCN1CC[C@]23c4c5ccc(O)c4O[C@H]2C(=O)CC[C@@]3(O)[C@H]1C5` [naloxone]: the “effect on icilin analgesia” value in test [2] (naloxone 25 nmol intrathecal co-administration with icilin) is reported as “had no effect”.

As to `CC(C)[C@H]1CC[C@@H](C)C[C@@H]1O` [isomenthol, 1S,2R,5R-menthol], in test [1], the “reversal of sensitised responses” value is “produced reversal of sensitised responses”.

With `C=C(C)[C@]12C[C@@H](C)[C@@]34O[C@](Cc5ccccc5)(O[C@@H]1[C@@H]3C=C(COC(=O)Cc1ccc(O)c(OC)c1)C[C@]1(O)C(=O)C(C)=C[C@@H]41)O2` [resiniferatoxin], in test [3] (antisense-treated animals), the “afferents activated out of 28 recorded” value is listed as 16 and the “increase in firing frequency” value came to 6 fold. Further, the “firing frequency after drug” value in test [3] (antisense-treated animals, (−)-menthol 4 mM) is listed as 25.9±1.8 Hz. In addition, in test [3] (setting [4]), the “firing frequency after drug” value worked out at 24.8±3.1 Hz and the “increase in firing frequency” value is listed as 5 fold.

For the compound `N[C@@H](CCP(=O)(O)O)C(=O)O` [AP-4, L-(1)-2-amino-4-phosphonobutyric acid], in test [2] (intrathecal), the “effect on contralateral responses” value was “no effects contralaterally”, the “reversal of mechanical reflex sensitisation ipsilateral to CCI” value is 60.7±8.0% and the “reversal of thermal reflex sensitisation ipsilateral to CCI” value was 60.8±6.7%.

For the compound `CC1CC[C@H](C(C)C)[C@@H](O)C1` (single isomer, unassigned; (+)) [(+)-menthol], the “reversal of sensitised responses” value in test [1] was “produced reversal of sensitised responses”.

For `N[C@@]1(C(=O)O)CN[C@@H](C(=O)O)C1` [2R,4R-APDC, (2R, 4R)-4-aminopyrrolidine-2,4-dicarboxylate], in test [2] (intrathecal), the “effect on contralateral responses” value was “no effect on contralateral responses”, the “reversal of mechanical reflex sensitisation ipsilateral to CCI” value was 56.0±10.9% and the “reversal of thermal reflex sensitisation ipsilateral to CCI” value is 72.1±6.4%.

Take `N[C@]1(C(=O)O)C[C@H](C(=O)O)[C@H](C(=O)O)C1` [ACPT-III, (1R,3R,4S)-1-aminocyclopentane-1,3,4-tricarboxylic acid]: in test [2] (intrathecal), the “effect on contralateral responses” value was “no effects contralaterally”, the “reversal of mechanical reflex sensitisation ipsilateral to CCI” value is recorded as 65.7±11.4% and the “reversal of thermal reflex sensitisation ipsilateral to CCI” value turned out to be 83.6±6.3%.

Take `COc1ccc(NC(=O)C2CC(C)CCC2C(C)C)cc1` (stereo not drawn) [WS-12, 2-isopropyl-5-methyl-cyclohexanecarboxylic acid (4-methoxyphenyl)amide]: the “analgesia, thermal hyperalgesia (Hargreaves' test)” value in test [1] was “causes analgesia”.

Turning to `N.N.N.N.N.N.N.N.N.N.N.N.N.N.[Cl-].[Cl-].[Cl-].[Cl-].[Cl-].[Cl-].[O-2].[O-2].[Ru+3].[Ru+3].[Ru+4]` [Ruthenium Red], the “effect on analgesic effect of intrathecally-injected icilin” value in test [2] (Ruthenium Red 0.25 nmol with icilin 10 nmol) is “unaffected”. In test [2] (co-injection of Ruthenium Red 0.25 nmol with cinnamaldehyde 75 nmol, intrathecal), the “effect on sensitising effects of cinnamaldehyde” value is on record as “prevented”.
